Among the data in US20250129069A1, “TRIAZOLO WRN INHIBITORS” (Nimbus Wadjet, Inc., priority 2023, published 2025) are IC50 and EC50 values, retold here.

Like-named read-outs stand apart in the source and are kept apart here.

Assay [1] concerns the target human Werner helicase (WRN, amino acids 517-1235 with L1074F point mutation) (Homo sapiens (Human), UniProt Q14191, L1074F). Put plainly: WRN (BV08) ADP-Glo assay. It is filed as biochemical. The conditions noted are these: human WRN (aa 517-1235, L1074F), read-out: ADP-Glo_hWRN_IC50. The essentials:
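Untagged WRN 517-1235 (L1074F), Sf9/baculovirus-expressed, 0.15 nM, preincubated 15 min with compound, then 5 μM ATP and 0.1 nM annealed DNA duplex added; 60 min at 25 °C in Bicine pH 7.5, 1 mM MgCl2, 1% DMSO. ADP-Glo luminescence; % inhibition vs DMSO and 20 μM NSC-617145 controls, four-parameter IC50 fit.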
(ADP-Glo first removes unused ATP, then detects ADP through luciferase.)

Assay [2] concerns p21 induction in HCT 116 cells. Put plainly: p21 induction in cells (In-Cell Western, p21/GAPDH ratio). It counts as cell-based. The conditions noted are these: 24 h compound incubation, read-out: p21_EC50. The method, boiled down: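 HCT 116 cells treated 24 h at 37° C with 11-point, 2-fold dilutions typically from 10 μM, in duplicate. Fixed cells co-stained for p21 (800 nm) and GAPDH (700 nm) by In-Cell Western. p21/GAPDH ratio normalised between DMSO and reference WRN inhibitor controls, and EC50 obtained by nonlinear regression.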

Chain of human Werner helicase (WRN, amino acids 517-1235 with L1074F point mutation) (Q14191 other isoform, or with tags, fused parts or gaps L1074F (already in the parent)): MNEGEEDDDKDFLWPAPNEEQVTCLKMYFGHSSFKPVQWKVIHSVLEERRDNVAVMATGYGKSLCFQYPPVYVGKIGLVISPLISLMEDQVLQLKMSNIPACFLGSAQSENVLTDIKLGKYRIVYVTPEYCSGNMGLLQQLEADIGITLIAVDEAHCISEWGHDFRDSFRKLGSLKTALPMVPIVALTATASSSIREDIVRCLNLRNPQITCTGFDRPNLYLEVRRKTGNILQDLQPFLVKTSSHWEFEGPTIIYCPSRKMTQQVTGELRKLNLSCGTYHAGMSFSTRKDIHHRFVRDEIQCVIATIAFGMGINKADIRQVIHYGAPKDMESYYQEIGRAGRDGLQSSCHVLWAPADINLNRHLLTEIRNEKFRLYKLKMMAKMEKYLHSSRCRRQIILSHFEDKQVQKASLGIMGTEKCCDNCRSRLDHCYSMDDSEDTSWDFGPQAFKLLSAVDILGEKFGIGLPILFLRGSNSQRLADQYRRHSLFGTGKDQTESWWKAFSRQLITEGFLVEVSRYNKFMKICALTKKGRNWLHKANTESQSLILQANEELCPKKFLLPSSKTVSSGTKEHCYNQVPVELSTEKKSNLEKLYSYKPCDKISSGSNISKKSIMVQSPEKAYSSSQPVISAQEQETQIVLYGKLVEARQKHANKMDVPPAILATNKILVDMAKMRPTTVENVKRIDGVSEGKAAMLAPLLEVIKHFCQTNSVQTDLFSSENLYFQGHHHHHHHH

Consider `CCc1c(N2CCN(C(=O)c3ncnc(C)c3O)[C@H]3CC[C@@H]32)c(=O)c2nn(-c3ccnc(OC)c3)nc2n1CC(=O)NC12CC(C(C)(F)F)(C1)C2` [Compound I-61, N-[3-(1,1-difluoroethyl)bicyclo[1.1.1]pentan-1-yl]-2-{5-ethyl-6-[(1S,6S)-5-(5-hydroxy-6-methylpyrimidine-4-carbonyl)-2,5-diazabicyclo[4.2.0]octan-2-yl]-2-(2-methoxypyridin-4-yl)-7-oxo-2H,4H,7H-[1,2,3]triazolo[4,5-b]pyridin-4-yl}acetamide], for which, in assay [1], the IC50 is 0.005 to 0.05 µM. For the same molecule, the EC50 in assay [2] is at most 0.5 µM.
Consider `CCc1c(N2CCN(C(=O)c3c(OC)ncc(C)c3O)CC2)c(=O)c2nn(-c3ccnc(C)c3)nc2n1CC(=O)NC12CC(C(C)C)(C1)C2` [Compound I-130, 2-{5-ethyl-6-[4-(4-hydroxy-2-methoxy-5-methylpyridine-3-carbonyl)piperazin-1-yl]-2-(2-methylpyridin-4-yl)-7-oxo-2H,4H,7H-[1,2,3]triazolo[4,5-b]pyridin-4-yl}-N-[3-(propan-2-yl)bicyclo[1.1.1]pentan-1-yl]acetamide], for which the IC50 in assay [1] was 0.005 to 0.05 µM. For the same molecule, the EC50 in assay [2] (Homo sapiens) is at most 0.5 µM.
Consider `CCc1c(N2CCN(C(=O)c3ncnc(C)c3O)CC2)c(=O)c2nn(-c3ccncc3)nc2n1CC(=O)NC12CC(CC)(C1)C2` [Compound I-138, 2-{5-ethyl-6-[4-(5-hydroxy-6-methylpyrimidine-4-carbonyl)piperazin-1-yl]-7-oxo-2-(pyridin-4-yl)-2H,4H,7H-[1,2,3]triazolo[4,5-b]pyridin-4-yl}-N-{3-ethylbicyclo[1.1.1]pentan-1-yl}acetamide], for which, in assay [1], the IC50 was in the range of 0.005 to 0.05 µM. Besides, in assay [2] (Homo sapiens), the EC50 fell in the range of 0.5 to 2 µM.
The corresponding values for `CCc1c(N2CCN(C(=O)c3c(OC)ncc([C@H]4CCOC4)c3O)CC2)c(=O)c2nn(-c3ccnc(OC)c3)nc2n1CC(=O)NC12CC(C(C)C)(C1)C2` (single isomer, unassigned) [Compound I-43] are 0.005 to 0.05 µM and 0.5 to 2 µM.
Consider `CCc1c(N2CCN(C(=O)c3ncnc(C)c3O)[C@H]3CC[C@@H]32)c(=O)c2nn(C3=CCOCC3)nc2n1CC(=O)NC12CC(C3CC3)(C1)C2` [Compound I-31, N-{3-cyclopropylbicyclo[1.1.1]pentan-1-yl}-2-[2-(3,6-dihydro-2H-pyran-4-yl)-5-ethyl-6-[(1S,6S)-5-(5-hydroxy-6-methylpyrimidine-4-carbonyl)-2,5-diazabicyclo[4.2.0]octan-2-yl]-7-oxo-2H,4H,7H-[1,2,3]triazolo[4,5-b]pyridin-4-yl]acetamide], for which, in assay [1], the IC50 fell in the range of 0.005 to 0.05 µM. The EC50 in assay [2] was at most 0.5 µM.
In the case of `CCc1c(N2CCN(C(=O)c3ncnc(C)c3O)[C@H]3CC[C@@H]32)c(=O)c2nn(-c3cnn(C4CC4)c3)nc2n1CC(=O)Nc1ccc(C(F)(F)F)cc1Cl` [Compound I-57, N-[2-chloro-4-(trifluoromethyl)phenyl]-2-[2-(1-cyclopropyl-1H-pyrazol-4-yl)-5-ethyl-6-[(1S,6S)-5-(5-hydroxy-6-methylpyrimidine-4-carbonyl)-2,5-diazabicyclo[4.2.0]octan-2-yl]-7-oxo-2H,4H,7H-[1,2,3]triazolo[4,5-b]pyridin-4-yl]acetamide], the IC50 in assay [1] was at most 0.005 µM. In addition, the EC50 in assay [2] (Homo sapiens) was at most 0.5 µM.
`CCc1c(N2CCN(C(=O)c3c(OC)ncc(Cl)c3O)[C@H]3CC[C@@H]32)c(=O)c2nn(C3=CCOCC3)nc2n1CC(=O)NC12CC(C3CC3)(C1)C2` [Compound I-213, 2-{6-[(1S,6S)-5-(5-chloro-4-hydroxy-2-methoxypyridine-3-carbonyl)-2,5-diazabicyclo[4.2.0]octan-2-yl]-2-(3,6-dihydro-2H-pyran-4-yl)-5-ethyl-7-oxo-2H,4H,7H-[1,2,3]triazolo[4,5-b]pyridin-4-yl}-N-{3-cyclopropylbicyclo[1.1.1]pentan-1-yl}acetamide]: the IC50 in assay [1] lay within 0.005 to 0.05 µM. Further, the EC50 in assay [2] (Homo sapiens) was 2 to 5 µM.
